Results published in patent US8859549B2, “Potassium channel modulators” (AbbVie, Inc., priority 2011, dated 2014).

Biological target: T1, KCNQ 2/3 channels (Homo sapiens, UniProt O43525+O43526)
T1 construct: expressed in transfected cells; host or cells: HEK293
Experiment: KCNQ 2/3 channel activation, thallium flux FLIPR assay (BTC-AM dye)
Type: cell-based
Conditions: for Emax: HEK293, maximum response relative to the response of 10 μM retigabine (set at 100%), HEK293 KCNQ2/KCNQ3 cells, read-out: % MAX; for EC50: HEK293 cells stably expressing human KCNQ2 and KCNQ3 subunits, thallium-induced fluorescence, 4 min compound incubation
How it was run: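 HEK293 cells stably expressing human KCNQ2/KCNQ3 were loaded with BTC-AM (3 μg/mL, 2 h, RT) and preincubated with compound for 4 min in pH 7.3 gluconate buffer containing 0.1 mM ouabain. Flux was triggered by 6 mM TlNO3/10 mM K2SO4 and read for 3 min; EC50 came from summed responses over basal, with maximum relative to 10 μM retigabine (100%).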

`O=C(Cc1ccccc1)NCc1nn(NC(=O)Cc2ccc(Cl)cc2)c(=O)c2ccccc12` [Example 86, 2-(4-chlorophenyl)-N-[1-oxo-4-{[(phenylacetyl)amino]methyl}phthalazin-2(1H)-yl]acetamide] was tested, and the Emax was 15.7%.
`CC(C)(C)C(=O)NCc1nn(NC(=O)Cc2ccc(Cl)cc2)c(=O)c2ccccc12` [Example 87, N-[(3-{[(4-chlorophenyl)acetyl]amino}-4-oxo-3,4-dihydrophthalazin-1-yl)methyl]-2,2-dimethylpropanamide] showed an Emax of 89.1% and an EC50 of 10100 nM.
Work on `C[C@@H]1CN(c2nn(NC(=O)Cc3cc(F)cc(F)c3)c(=O)c3ccccc23)C[C@H](C)O1` [Example 88, 2-(3,5-difluorophenyl)-N-{4-[(cis)-2,6-dimethylmorpholin-4-yl]-1-oxophthalazin-2(1H)-yl}acetamide] yielded an Emax of 107% and an EC50 of 998 nM.
`C[C@@H]1CN(c2nn(NC(=O)CC(C)(C)c3ccccc3)c(=O)c3ccccc23)C[C@H](C)O1` [Example 89, N-{4-[(cis)-2,6-dimethylmorpholin-4-yl]-1-oxophthalazin-2(1H)-yl}-3-methyl-3-phenylbutanamide] was tested, and the Emax was 183% and the EC50 was 350 nM.
`O=C(Cc1ccc(Cl)cc1)Nn1nc(N2CCSCC2)c2ccccc2c1=O` [Example 91, 2-(4-chlorophenyl)-N-[1-oxo-4-(thiomorpholin-4-yl)phthalazin-2(1H)-yl]acetamide] was tested, and the Emax was 164% and the EC50 was 920 nM.
For `O=C(Cc1cc(F)cc(F)c1)Nn1nc(N2CCSCC2)c2ccccc2c1=O` [Example 92, 2-(3,5-difluorophenyl)-N-[1-oxo-4-(thiomorpholin-4-yl)phthalazin-2(1H)-yl]acetamide], the Emax was 187% and the EC50 was 618 nM.
In the case of `O=C(Cc1ccc(Cl)cc1)Nn1nc(N2CCN(Cc3ccccc3)CC2)c2ccccc2c1=O` [Example 101, N-[4-(4-benzylpiperazin-1-yl)-1-oxophthalazin-2(1H)-yl]-2-(4-chlorophenyl)acetamide], the Emax is reported as 112% and the EC50 is reported as 3490 nM.
`CC(C)(C)OC(=O)Nc1ccc(Sc2nn(NC(=O)Cc3ccc(Cl)cc3)c(=O)c3ccccc23)cc1` [Example 103, tert-butyl{4-[(3-{[(4-chlorophenyl)acetyl]amino}-4-oxo-3,4-dihydrophthalazin-1-yl)sulfanyl]phenyl}carbamate] was tested, and the Emax was 76%.
`O=C(Cc1ccc(Cl)cc1)Nn1nc(Cc2ccc(Cl)[n+]([O-])c2)c2ccccc2c1=O` [Example 104, N-{4-[(6-chloro-1-oxidopyridin-3-yl)methyl]-1-oxophthalazin-2(1H)-yl}-2-(4-chlorophenyl)acetamide] was tested, and the Emax was 11.7%.
With `Nc1ccc(Sc2nn(NC(=O)Cc3ccc(Cl)cc3)c(=O)c3ccccc23)cc1` [Example 105, N-{4-[(4-aminophenyl)sulfanyl]-1-oxophthalazin-2(1H)-yl}-2-(4-chlorophenyl)acetamide] the Emax was 120% and the EC50 was 889 nM.
Work on `CC(C)(C)OC(=O)Nc1ccc(S(=O)(=O)c2nn(NC(=O)Cc3ccc(Cl)cc3)c(=O)c3ccccc23)cc1` [Example 106, tert-butyl{4-[(3-{[(4-chlorophenyl)acetyl]amino}-4-oxo-3,4-dihydrophthalazin-1-yl)sulfonyl]phenyl}carbamate] yielded an Emax of 46.2% and an EC50 of 2010 nM.
With `CN1CCN(c2nn(NC(=O)Cc3ccc(Cl)cc3)c(=O)c3ccccc23)CC1` [Example 107, 2-(4-chlorophenyl)-N-[4-(4-methylpiperazin-1-yl)-1-oxophthalazin-2(1H)-yl]acetamide] the Emax was 24.3%.
For `CCOC(=O)C(C)c1nn(NC(=O)Cc2ccc(Cl)cc2)c(=O)c2ccccc12` (stereo not shown) [Example 109, ethyl 2-(3-{[(4-chlorophenyl)acetyl]amino}-4-oxo-3,4-dihydrophthalazin-1-yl)propanoate], the Emax was 53.2% and the EC50 was 1420 nM.
`CC(C(=O)O)c1nn(NC(=O)Cc2ccc(Cl)cc2)c(=O)c2ccccc12` (stereo not shown) [Example 110, 2-(3-{[(4-chlorophenyl)acetyl]amino}-4-oxo-3,4-dihydrophthalazin-1-yl)propanoic acid] gave an Emax of 2.26%.
In the case of `O=C(Cc1ccccc1)Nn1nc(N2CCOCC2)c2ccccc2c1=O` [Example 111, N-[4-(morpholin-4-yl)-1-oxophthalazin-2(1H)-yl]-2-phenylacetamide], the Emax is reported as 70.7% and the EC50 is reported as 17300 nM.
For `CC(C(=O)NC(C)(C)C)c1nn(NC(=O)Cc2ccc(Cl)cc2)c(=O)c2ccccc12` (stereo not shown) [Example 112, N-tert-butyl-2-(3-{[(4-chlorophenyl)acetyl]amino}-4-oxo-3,4-dihydrophthalazin-1-yl)propanamide], the Emax was 17.1%.
Work on `CC(C(=O)NCC(C)(C)C)c1nn(NC(=O)Cc2ccc(Cl)cc2)c(=O)c2ccccc12` (stereo not shown) [Example 113, 2-(3-{[(4-chlorophenyl)acetyl]amino}-4-oxo-3,4-dihydrophthalazin-1-yl)-N-(2,2-dimethylpropyl)propanamide] yielded an Emax of 21.8%.
`O=C(O)Cc1nn(NC(=O)Cc2ccc(Cl)cc2)c(=O)c2ccccc12` [Example 114, (3-{[(4-chlorophenyl)acetyl]amino}-4-oxo-3,4-dihydrophthalazin-1-yl)acetic acid] was tested, and the Emax was 3.72%.
Compound `Nc1ccc(S(=O)(=O)c2nn(NC(=O)Cc3ccc(Cl)cc3)c(=O)c3ccccc23)cc1` [Example 115, N-{4-[(4-aminophenyl)sulfonyl]-1-oxophthalazin-2(1H)-yl}-2-(4-chlorophenyl)acetamide] has an Emax of 42.2%.
`CCOC(=O)Cc1nn(NC(=O)Cc2ccc(Cl)cc2)c(=O)c2ccccc12` [Example 116, ethyl(3-{[(4-chlorophenyl)acetyl]amino}-4-oxo-3,4-dihydrophthalazin-1-yl)acetate] gave an Emax of 61.4% and an EC50 of 7620 nM.
`CCOC(=O)C(NC(=O)Cc1ccc(Cl)cc1)c1nn(NC(=O)Cc2ccc(Cl)cc2)c(=O)c2ccccc12` (stereo not shown) [Example 117, ethyl{[(4-chlorophenyl)acetyl]amino}(3-{[(4-chlorophenyl)acetyl]amino}-4-oxo-3,4-dihydrophthalazin-1-yl)acetate] was tested, and the Emax was 26.2%.
`CC(C)(C)OC(=O)NCc1nn(NC(=O)Cc2ccc(C(F)(F)F)cc2)c(=O)c2ccccc12` [Example 118, tert-butyl{[4-oxo-3-({[4-(trifluoromethyl)phenyl]acetyl}amino)-3,4-dihydrophthalazin-1-yl]methyl}carbamate] was tested, and the Emax was 40.7% and the EC50 was 2850 nM.
With `CC(C)(C)OC(=O)NCc1nn(NC(=O)C[C@@H]2CC[C@H]3C[C@@H]2C3(C)C)c(=O)c2ccccc12` [Example 119, tert-butyl{[3-({[(1S,2S,5S)-6,6-dimethylbicyclo[3.1.1]hept-2-yl]acetyl}amino)-4-oxo-3,4-dihydrophthalazin-1-yl]methyl}carbamate] the Emax was 33.9%.
For `O=C(Cc1ccc(Cl)cc1)Nn1nc(CCO)c2ccccc2c1=O` [Example 121, 2-(4-chlorophenyl)-N-[4-(2-hydroxyethyl)-1-oxophthalazin-2(1H)-yl]acetamide], the Emax was 10.5%.
`CC(C)(C)NC(=O)Cc1nn(NC(=O)Cc2ccc(Cl)cc2)c(=O)c2ccccc12` [Example 122, N-{4-[2-(tert-butylamino)-2-oxoethyl]-1-oxophthalazin-2(1H)-yl}-2-(4-chlorophenyl)acetamide] was tested, and the Emax was 14.2%.
`CC(C)(C)CNC(=O)Cc1nn(NC(=O)Cc2ccc(Cl)cc2)c(=O)c2ccccc12` [Example 123, 2-(4-chlorophenyl)-N-[4-{2-[(2,2-dimethylpropyl)amino]-2-oxoethyl}-1-oxophthalazin-2(1H)-yl]acetamide] showed an Emax of 13%.
`CC(C)(C)OC(=O)NCc1nn(NC(=O)CC2CCC(F)(F)CC2)c(=O)c2ccccc12` [Example 124, tert-butyl[(3-{[(4,4-difluorocyclohexyl)acetyl]amino}-4-oxo-3,4-dihydrophthalazin-1-yl)methyl]carbamate] gave an Emax of 72.5% and an EC50 of 8050 nM.
Work on `CC(C)(C)OC(=O)NCc1nn(NC(=O)Cc2ccc(F)cc2)c(=O)c2ccccc12` [Example 125, tert-butyl[(3-{[(4-fluorophenyl)acetyl]amino}-4-oxo-3,4-dihydrophthalazin-1-yl)methyl]carbamate] yielded an Emax of 93.1% and an EC50 of 9900 nM.
`CC(C)(C)OC(=O)NCc1nn(NC(=O)CC2CCCCC2)c(=O)c2ccccc12` [Example 126, tert-butyl({3-[(cyclohexylacetyl)amino]-4-oxo-3,4-dihydrophthalazin-1-yl}methyl)carbamate] gave an Emax of 25.6%.
Compound `O=C(Cc1ccc(Cl)cc1)Nn1nc(Oc2ccccc2)c2ccccc2c1=O` [Example 127, 2-(4-chlorophenyl)-N-(1-oxo-4-phenoxyphthalazin-2(1H)-yl)acetamide] has an Emax of 87.4% and an EC50 of 180 nM.
`O=C(Cc1ccc(Cl)cc1)Nn1nc(CNC(=O)OC2CCCCC2)c2ccccc2c1=O` [Example 128, cyclohexyl[(3-{[(4-chlorophenyl)acetyl]amino}-4-oxo-3,4-dihydrophthalazin-1-yl)methyl]carbamate] gave an Emax of 21.6%.
In the case of `O=C(Cc1ccc(Cl)cc1)Nn1nc(CNC(=O)OCC(F)(F)F)c2ccccc2c1=O` [Example 129, 2,2,2-trifluoroethyl[(3-{[(4-chlorophenyl)acetyl]amino}-4-oxo-3,4-dihydrophthalazin-1-yl)methyl]carbamate], the Emax is reported as 33.7% and the EC50 is reported as 1280 nM.
`CS(=O)(=O)c1ccc(CC(=O)Nn2nc(N3CCOCC3)c3ccccc3c2=O)cc1` [Example 130, 2-[4-(methylsulfonyl)phenyl]-N-[4-(morpholin-4-yl)-1-oxophthalazin-2(1H)-yl]acetamide] showed an Emax of 5.33%.
`O=C(Cc1cccc(Oc2ccccc2)c1)Nn1nc(N2CCOCC2)c2ccccc2c1=O` [Example 131, N-[4-(morpholin-4-yl)-1-oxophthalazin-2(1H)-yl]-2-(3-phenoxyphenyl)acetamide] gave an Emax of 17.1%.
Work on `O=C(Cc1ccc(OC(F)(F)F)cc1)Nn1nc(N2CCOCC2)c2ccccc2c1=O` [Example 132, N-[4-(morpholin-4-yl)-1-oxophthalazin-2(1H)-yl]-2-[4-(trifluoromethoxy)phenyl]acetamide] yielded an Emax of 105% and an EC50 of 1690 nM.
